Test results reported in ChEMBL document CHEMBL5543117, “Novel TLR4-Activating Vaccine Adjuvant Enhances the Production of Enterococcus faecium-binding Antibodies” (J Med Chem, 2024).
Active and inactive are the calls of the source. No cut-off for these calls is given here.

Columns and labels:
[1] = target: Toll-like receptor 4 (Homo sapiens) (UniProt O00206); assay: Agonist activity at human TLR4 in HEK-Blue hTLR4 cells assessed as increase in SEAP level incubated for 16 to 18 hrs by SEAP reporter gene based Quanti-Blue assay; type: cell-based; details: filed as agonist, dose 0.1-25 µM, time 16-18 hrs
Sequence of Toll-like receptor 4 (Homo sapiens) (O00206 whole entry): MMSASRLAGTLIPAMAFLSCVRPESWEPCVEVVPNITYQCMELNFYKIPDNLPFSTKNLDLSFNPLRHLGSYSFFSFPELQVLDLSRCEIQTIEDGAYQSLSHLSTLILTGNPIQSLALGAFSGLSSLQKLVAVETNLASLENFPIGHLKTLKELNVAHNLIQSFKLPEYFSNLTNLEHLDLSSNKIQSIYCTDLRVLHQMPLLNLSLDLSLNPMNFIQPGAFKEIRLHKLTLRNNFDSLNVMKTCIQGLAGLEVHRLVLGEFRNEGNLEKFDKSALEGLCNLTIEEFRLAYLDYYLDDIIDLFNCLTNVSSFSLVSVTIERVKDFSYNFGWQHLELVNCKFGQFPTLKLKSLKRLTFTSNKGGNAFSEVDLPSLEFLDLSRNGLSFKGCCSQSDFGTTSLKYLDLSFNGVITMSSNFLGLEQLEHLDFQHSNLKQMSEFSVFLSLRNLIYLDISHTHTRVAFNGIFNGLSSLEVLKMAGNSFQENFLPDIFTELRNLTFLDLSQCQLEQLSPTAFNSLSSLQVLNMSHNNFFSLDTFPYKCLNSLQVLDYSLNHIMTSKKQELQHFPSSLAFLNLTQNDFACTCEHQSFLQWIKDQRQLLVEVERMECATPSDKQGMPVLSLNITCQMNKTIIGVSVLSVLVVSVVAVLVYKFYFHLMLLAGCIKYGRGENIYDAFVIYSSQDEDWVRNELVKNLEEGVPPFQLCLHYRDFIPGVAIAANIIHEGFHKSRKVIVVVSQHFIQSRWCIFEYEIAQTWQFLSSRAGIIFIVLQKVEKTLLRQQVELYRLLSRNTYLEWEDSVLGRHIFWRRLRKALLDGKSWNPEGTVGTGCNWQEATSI

[2] = target: Toll-like receptor 2 (Homo sapiens) (UniProt O60603); assay: Agonist activity at human TLR2 in HEK-Blue hTLR2 cells assessed as increase in SEAP level at 0.1 to 25 uM incubated for 16 to 18 hrs by SEAP reporter gene based Quanti-Blue assay; type: cell-based; details: dose 0.1-25 µM, time 16-18 hrs
Sequence of Toll-like receptor 2 (Homo sapiens) (O60603 whole entry): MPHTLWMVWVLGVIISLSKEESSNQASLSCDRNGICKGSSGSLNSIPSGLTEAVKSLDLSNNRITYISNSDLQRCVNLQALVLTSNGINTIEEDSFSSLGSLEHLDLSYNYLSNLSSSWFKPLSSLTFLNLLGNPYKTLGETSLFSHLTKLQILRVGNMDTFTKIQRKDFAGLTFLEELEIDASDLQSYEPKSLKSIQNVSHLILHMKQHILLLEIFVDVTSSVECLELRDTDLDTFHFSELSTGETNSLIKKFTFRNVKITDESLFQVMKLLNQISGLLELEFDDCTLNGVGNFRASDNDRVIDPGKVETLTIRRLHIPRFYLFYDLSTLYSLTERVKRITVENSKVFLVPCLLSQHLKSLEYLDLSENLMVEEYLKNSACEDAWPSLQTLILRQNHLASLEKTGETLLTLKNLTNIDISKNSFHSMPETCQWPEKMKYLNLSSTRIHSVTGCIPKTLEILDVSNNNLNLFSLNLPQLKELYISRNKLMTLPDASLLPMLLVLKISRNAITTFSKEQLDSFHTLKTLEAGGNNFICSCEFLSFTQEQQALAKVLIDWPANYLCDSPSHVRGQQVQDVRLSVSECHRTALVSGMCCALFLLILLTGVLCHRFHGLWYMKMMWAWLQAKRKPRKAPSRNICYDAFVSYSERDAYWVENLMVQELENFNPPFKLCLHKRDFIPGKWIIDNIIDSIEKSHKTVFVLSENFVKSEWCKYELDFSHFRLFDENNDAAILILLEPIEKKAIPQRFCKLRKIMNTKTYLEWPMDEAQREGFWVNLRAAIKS

THP1-Xblue [3] = assay: Immunostimulatory activity in human THP1-Xblue cells assessed as increase in TNF-alpha release incubated for 16 to 18 hrs by ELISA; type: functional, cell-based; details: dose 0.1-10 µM, time 16-18 hrs
THP1-Xblue [4] = assay: Immunostimulatory activity in human THP1-Xblue cells assessed as increase in IL-1beta release incubated for 16 to 18 hrs by ELISA; type: functional, cell-based; details: dose 0.1-10 µM, time 16-18 hrs
THP1-Xblue [5] = assay: Immunostimulatory activity in human THP1-Xblue cells assessed as increase in IL-6 release incubated for 16 to 18 hrs by ELISA; type: functional, cell-based; details: dose 0.1-10 µM, time 16-18 hrs
[6] = target: Toll-like receptor 4 (Homo sapiens) (UniProt O00206); assay: Agonist activity at TLR4 in human THP1-Xblue cells assessed as increase in SEAP level at 0.1 to 10 uM incubated for 16 to 18 hrs by SEAP reporter gene based Quanti-Blue assay; type: cell-based; details: filed as agonist, dose 0.1-10 µM, time 16-18 hrs
[7] = target: Toll-like receptor 4 (Homo sapiens) (UniProt O00206); assay: Agonist activity at TLR4 in human THP1-Xblue cells assessed as induction of IkappaBalpha degradation at 10 uM incubated for 15 mins by immunoblotting analysis; type: cell-based; details: filed as agonist
[8] = target: Toll-like receptor 4 (Homo sapiens) (UniProt O00206); assay: Agonist activity at TLR4 in human THP1-Xblue cells assessed as induction of p65 phosphorylation at 10 uM incubated for 120 to 240 mins by immunoblotting analysis; type: cell-based; details: filed as agonist, time 120-240 min
[9] = target: Transcription factor p65 (Homo sapiens) (UniProt Q04206); assay: Induction of NFkappaB p65 nuclear translocation in human THP1-Xblue cells assessed as percentage of positive nuclei at 10 uM measured after 90 mins by Hoechst 33342 staining based immunofluorescence analysis relative to control (reference value: 0%); type: cell-based
Sequence of Transcription factor p65 (Homo sapiens) (Q04206 whole entry): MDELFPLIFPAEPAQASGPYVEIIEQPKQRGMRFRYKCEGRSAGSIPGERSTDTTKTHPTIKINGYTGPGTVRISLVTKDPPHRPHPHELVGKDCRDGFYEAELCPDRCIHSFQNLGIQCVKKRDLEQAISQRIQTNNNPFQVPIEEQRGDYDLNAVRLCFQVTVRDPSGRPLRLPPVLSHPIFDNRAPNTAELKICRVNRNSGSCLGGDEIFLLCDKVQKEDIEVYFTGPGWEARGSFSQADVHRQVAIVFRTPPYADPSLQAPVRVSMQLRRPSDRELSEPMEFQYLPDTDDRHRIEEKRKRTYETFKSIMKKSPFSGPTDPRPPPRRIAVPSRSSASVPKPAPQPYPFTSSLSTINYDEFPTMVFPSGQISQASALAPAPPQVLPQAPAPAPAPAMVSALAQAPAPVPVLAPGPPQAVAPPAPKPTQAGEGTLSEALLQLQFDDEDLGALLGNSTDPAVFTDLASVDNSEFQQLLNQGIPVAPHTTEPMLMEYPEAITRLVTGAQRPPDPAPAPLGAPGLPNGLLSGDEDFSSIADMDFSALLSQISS

[10] = target: Transcription factor p65 (Homo sapiens) (UniProt Q04206); assay: Induction of NFkappaB p65 nuclear translocation in human THP1-Xblue cells assessed as percentage of positive nuclei at 10 uM measured after 120 mins by Hoechst 33342 staining based immunofluorescence analysis (reference value: 0%); type: cell-based
[11] = Cytotoxicity against human THP1-Xblue cells assessed as reduction in cell viability at 0.1 to 10 uM incubated for 16 to 18 hrs by MTT assay; type: toxicity, cell-based; details: dose lower 0.1 µM, time lower 16 hrs, dose upper 10 µM, time upper 18 hrs
THP1-Xblue [12] = assay: Activation of TRAM/TRIF pathway in human THP1-Xblue cells assessed as increase in IRF3 phosphorylation by Western blot analysis; type: cell-based
THP1-Xblue [13] = assay: Activation of TRAM/TRIF pathway in human THP1-Xblue cells assessed as increase in STAT1 phosphorylation by Western blot analysis; type: cell-based
THP1-Xblue [14] = assay: Activation of TRAM/TRIF pathway in human THP1-Xblue cells assessed as induction of phosphorylated IRF3 nuclear translocation by immunofluorescence analysis; type: cell-based
THP1-Xblue [15] = assay: Induction of IFN-beta production in human THP1-Xblue cells; type: functional, cell-based
Mus musculus [16] = assay: Adjuvant activity in OVA-immunized C57BL/6J mouse model assessed as increase in IgG levels at 10 ug, sc administered on day 0 and as booster dose on day 21 and measured after 42 days by ELISA; type: functional, organism-based; details: dose 10.0 µg, time 42.0 day
Mus musculus [17] = assay: Adjuvant activity in OVA-immunized C57BL/6J mouse model assessed as increase in IgG1 levels at 10 ug, sc administered on day 0 and as booster dose on day 21 and measured after 42 days by ELISA; type: functional, organism-based; details: dose 10.0 µg, time 42.0 day
Mus musculus [18] = assay: Adjuvant activity in OVA-immunized C57BL/6J mouse model assessed as increase in IgG2c levels at 10 ug, sc administered on day 0 and as booster dose on day 21 and measured after 42 days by ELISA; type: functional, organism-based; details: dose 10.0 µg, time 42.0 day
Mus musculus [19] = assay: Effect on IgG2b levels in OVA-immunized C57BL/6J mouse model at 10 ug, sc administered on day 0 and as booster dose on day 21 and measured after 42 days by ELISA; type: functional, organism-based; details: dose 10.0 µg, time 42.0 day
[20] = Toxicity in OVA-immunized C57BL/6J mouse model assessed as change in body weight at 10 ug, SC administered on day 0 and measured after 4 days; details: in vivo, 96 h, dose 10 µg, time 4 day
[21] = Toxicity in OVA-immunized C57BL/6J mouse model assessed as change in ALT level at 10 ug, SC administered on day 0 and as booster dose on day 20 and measured after 40 days; details: in vivo, 960 h, dose 10 µg, time 40 day
[22] = Toxicity in OVA-immunized C57BL/6J mouse model assessed as change in AST level at 10 ug, SC administered on day 0 and as booster dose on day 20 and measured after 40 days; details: in vivo, 960 h, dose 10 µg, time 40 day
Oryctolagus cuniculus [23] = assay: Adjuvant activity in Enterococcus faecium PpiC-immunized New Zealand rabbit model assessed as production of PpiC specific antibody in sera at 38.4 ug administered on day 0, 7.7 ug on day 7 and 14 and measured after 28 days by ELISA; type: functional, organism-based; details: time 28.0 day
Oryctolagus cuniculus [24] = assay: Induction of antibody production in New Zealand rabbit at 38.4 ug administered on day 0, 7.7 ug on day 7 and 14 and measured after 28 days by ELISA; type: functional, organism-based; details: time 28.0 day
Oryctolagus cuniculus [25] = assay: Adjuvant activity in Enterococcus faecium PpiC-immunized New Zealand rabbit model assessed as production of PpiC specific antibody in sera at 1:50 dilutions at 38.4 ug administered on day 0, 7.7 ug on day 7 and 14 and measured after 28 days by absorbance based analysis; type: functional, organism-based; details: time 28.0 day
Oryctolagus cuniculus [26] = assay: Adjuvant activity in Enterococcus faecium PpiC-immunized New Zealand rabbit model assessed as production of PpiC specific antibody in sera at 1:100 dilutions at 38.4 ug administered on day 0, 7.7 ug on day 7 and 14 and measured after 28 days by absorbance based analysis; type: functional, organism-based; details: time 28.0 day
Oryctolagus cuniculus [27] = assay: Adjuvant activity in Enterococcus faecium PpiC-immunized New Zealand rabbit model assessed as production of PpiC specific antibody in sera at 1:25600 dilutions at 38.4 ug administered on day 0, 7.7 ug on day 7 and 14 and measured after 28 days by absorbance based analysis; type: functional, organism-based; details: time 28.0 day
Oryctolagus cuniculus [28] = assay: Adjuvant activity in Enterococcus faecium PpiC-immunized New Zealand rabbit model assessed as production of PpiC specific antibody in terminal bleed sera at 1:1600 dilutions at 38.4 ug administered on day 0, 7.7 ug on day 7 and 14 and measured after 28 days by ELISA; type: functional, organism-based; details: time 28.0 day
Oryctolagus cuniculus [29] = assay: (§1) Adjuvant activity in Enterococcus faecium PpiC-immunized New Zealand rabbit model assessed as antibody production by measuring increase in vancomycin resistant Enterococcus faecium 11236/1 specific antibodies at 38.2 ug administered on day 0, 7.7 ug on day 7 and 14 and measured after 28 days by Whole-bacterial cell ELISA; type: functional, organism-based; details: time 28.0 day
THP1-Xblue [30] = assay: Immunostimulatory activity in human THP1-Xblue cells assessed as increase in IL-6 release at 0.1 to 10 uM incubated for 16 to 18 hrs by ELISA; type: functional, cell-based; details: dose 0.1-10 µM, time 16-18 hrs
Mus musculus [31] = assay: Adjuvant activity in OVA-immunized C57BL/6J mouse model assessed as increase in IgG2b levels at 10 ug, sc administered on day 0 and as booster dose on day 21 and measured after 42 days by ELISA; type: functional, organism-based; details: dose 10.0 µg, time 42.0 day
Oryctolagus cuniculus [32] = assay: Adjuvant activity in Enterococcus faecium PpiC-immunized New Zealand rabbit model assessed as production of PpiC specific antibody in sera at 70.2 ug administered on day 0, 14 ug on day 7 and 14 and measured after 28 days by ELISA; type: functional, organism-based; details: time 28.0 day
Oryctolagus cuniculus [33] = assay: Adjuvant activity in Enterococcus faecium PpiC-immunized New Zealand rabbit model assessed as production of PpiC specific antibody in sera at 1:50 dilutions at 70.2 ug administered on day 0, 14 ug on day 7 and 14 and measured after 28 days by absorbance based analysis; type: functional, organism-based; details: time 28.0 day
Oryctolagus cuniculus [34] = assay: Adjuvant activity in Enterococcus faecium PpiC-immunized New Zealand rabbit model assessed as production of PpiC specific antibody in sera at 1:100 dilutions at 70.2 ug administered on day 0, 14 ug on day 7 and 14 and measured after 28 days by absorbance based analysis; type: functional, organism-based; details: time 28.0 day
Oryctolagus cuniculus [35] = assay: Adjuvant activity in Enterococcus faecium PpiC-immunized New Zealand rabbit model assessed as production of PpiC specific antibody in sera at 1:25600 dilutions at 70.2 ug administered on day 0, 14 ug on day 7 and 14 and measured after 28 days absorbance based analysis; type: functional, organism-based; details: time 28.0 day
Oryctolagus cuniculus [36] = assay: Adjuvant activity in Enterococcus faecium PpiC-immunized New Zealand rabbit model assessed as production of PpiC specific antibody in terminal bleed sera at 1:1600 dilutions at 70.2 ug administered on day 0, 14 ug on day 7 and 14 and measured after 28 days by ELISA; type: functional, organism-based; details: time 28.0 day
Oryctolagus cuniculus [37] = assay: as §1, with “70.2” for “38.2”, “14” for “7.7”; type: functional, organism-based; details: time 28.0 day

Q: With `CCCCCCCCCCCC(=O)N[C@H]1[C@H](OC(=O)CCCCCCCCCCC)O[C@H](COC(=O)C(C)(CO)CO)[C@@H](OP(=O)([O-])[O-])[C@@H]1OC(=O)CCCCCCCCCCC.[Na+].[Na+]` as the compound, how does the Activity [1] read?
A: Active

Q: What about the Activity [2] of the same compound?
A: inactive

Q: What about the Activity (THP1-Xblue [3]) of the same compound?
A: Dose-Dependent Effect

Q: What about the Activity (THP1-Xblue [4]) of the same compound?
A: Dose-Dependent Effect

Q: And the Activity (THP1-Xblue [5])?
A: Dose-Dependent Effect

Q: And the Activity [6]?
A: Active

Q: What about the Activity [7] of the same compound?
A: Active

Q: What about the Activity [8] of the same compound?
A: Active

Q: And the Activity [9]?
A: 15.3%

Q: What about the Activity [10] of the same compound?
A: 19%

Q: What about the Activity [11] of the same compound?
A: Non-Toxic

Q: What about the Activity (THP1-Xblue [12]) of the same compound?
A: inactive

Q: And the Activity (THP1-Xblue [13])?
A: inactive

Q: What about the Activity (THP1-Xblue [14]) of the same compound?
A: inactive

Q: What about the Activity (THP1-Xblue [15]) of the same compound?
A: inactive

Q: What about the Activity (Mus musculus [16]) of the same compound?
A: Active

Q: And the Activity (Mus musculus [17])?
A: Active

Q: What about the Activity (Mus musculus [18]) of the same compound?
A: Active

Q: And the Activity (Mus musculus [19])?
A: inactive

Q: What about the Activity [20] of the same compound?
A: Non-Toxic

Q: What about the Activity [21] of the same compound?
A: Non-Toxic

Q: And the Activity [22]?
A: Non-Toxic

Q: What about the Activity (Oryctolagus cuniculus [23]) of the same compound?
A: Active

Q: What about the Activity (Oryctolagus cuniculus [24]) of the same compound?
A: inactive

Q: And the Activity (Oryctolagus cuniculus [25])?
A: Active

Q: What about the Activity (Oryctolagus cuniculus [26]) of the same compound?
A: Active

Q: And the Activity (Oryctolagus cuniculus [27])?
A: Active

Q: And the Activity (Oryctolagus cuniculus [28])?
A: Active

Q: What about the Activity (Oryctolagus cuniculus [29]) of the same compound?
A: Active

Q: Which Activity (THP1-Xblue [30]) does the source give for `CCCCCCCCCCCC(=O)N[C@H]1[C@H](OC(=O)CCCCCCCCCCC)O[C@H](CO)[C@@H](OP(=O)(O)O)[C@@H]1OC(=O)CCCCCCCCCCC` here?
A: inactive

Q: What about the Activity [9] of the same compound?
A: 1.3%

Q: What about the Activity [10] of the same compound?
A: 1.8%

Q: For `CCCCCCCCCCCCCC(=O)O[C@H](CCCCCCCCCCC)CC(=O)N[C@H]1[C@H](OC[C@H]2OC(O)[C@H](NC(=O)C[C@H](O)CCCCCCCCCCC)[C@@H](OC(=O)C[C@H](O)CCCCCCCCCCC)[C@@H]2O)O[C@H](CO)[C@@H](OP(=O)(O)O)[C@@H]1OC(=O)C[C@@H](CCCCCCCCCCC)OC(=O)CCCCCCCCCCCCC` (some centres not stated), which Activity (Mus musculus [16]) is on record?
A: Active

Q: What about the Activity (Mus musculus [17]) of the same compound?
A: Active

Q: What about the Activity (Mus musculus [18]) of the same compound?
A: Active

Q: And the Activity (Mus musculus [31])?
A: Active

Q: And the Activity (Oryctolagus cuniculus [32])?
A: Active

Q: And the Activity (Oryctolagus cuniculus [33])?
A: Active

Q: What about the Activity (Oryctolagus cuniculus [34]) of the same compound?
A: Active

Q: And the Activity (Oryctolagus cuniculus [35])?
A: Active

Q: And the Activity (Oryctolagus cuniculus [36])?
A: Active

Q: And the Activity (Oryctolagus cuniculus [37])?
A: Active
